According to patent US20220106596A1, “A METHOD OF GENE EDITING” (University of Washington, priority 2019, published 2022):

Tests used:
mouse liver = experiment: In vivo gene editing of mouse liver with AAVDj-mALB-luciferase (bioluminescence imaging); parameters: species or system C57BL/6 mice; settings: emetine 5 mg/kg intraperitoneal, days 1-5, FIG. 3
Description: To determine the effect of emetine on gene editing in vivo, experiments were performed using C57BL/6 mice.
[…]. On day 0, 5 mice (Group I), were given AAVDj-mALB-luciferase vector at an amount of 3×10^11 vg/mouse by retro orbital injection. Gene editing of the AAVDj-mALB-luciferase vector results in an albumin locus knock-in and luciferase expression. 5 mice (Group 2) were injected with AAVDj-mALB-luciferase vector, at an amount of 3×10^11 vg/mouse by retro orbital injection, and given emetine in DPBS, at a concentration of 5 mg/kg, by intraperitoneal injection. 5 mice (Group 3) were injected only with emetine at a concentration of 5 mg/kg, by intraperitoneal injection.
Emetine was administered to Groups 2 and 3 on days 1-5. On days 8, […] and 22, in vivo imaging in the presence of 15 mg/kg D-luciferin, administered by intraperitoneal injection, was performed to determine the occurrence of editing. Following D-luciferin administration, the mice were anesthetized with isoflurane and placed in an IVIS imager and the peak bioluminescence was recorded (Gornalusse et al., 2017, Nature Biotech, 35(8): 765-772). […] At days 15 and 22, a 1.6 and 1.4 fold increase, respectively, were observed.

[1] = tested on: HT-1080 cells with LHSN63D530 provirus and HPRT exon3D4; experiment: HPRT gene editing in HT-1080 cells infected with AAV2-HPe3 (HAT selection), effect of emetine; type: cell-based, human
Excerpt: (§1) The murine leukemia virus (MLV) vector LHSN63Δ53O contains a nonfunctional neomycin phosphotransferase target gene (neo) with a 53-bp deletion at nucleotide 63 of its open reading frame, a hygromycin phosphotransferase gene (hph) for selection, and a plasmid replication origin for recovering the target sites.
(§2) In some embodiments, a cell is gene edited using the HT-1080 (human fibrosarcoma cells) gene editing assay. This method uses HT-1080 neo/HPRT editing cells transduced with LHSN63Δ53O. HT-1080 cells contain an integrated copy of an MLV LHSN63Δ530 targeting locus and a 4 by deletion in the single copy, X-linked HPRT gene at exon 3. The cells are transduced with AAV2-HSN5′ and cultured in G418 to identify neo gene-edited cells. The AAV2-HSN5′ gene targeting vector contains sequences homologous to MLV-LHSN63Δ53O with a truncated neo gene that lacks the 53 by deletion. Alternatively, HT-1080 cells are transduced with AAV2-HPe3 targeting vector and selected with HAT medium to identify HPRT gene-edited cells (See Russell et al., 2008, Human Gene Therapy, 19: 907-914 and Deyle et al., 2014, Nature Structural & Molecular Biol., 21: 969-975). Targeted clones are expanded as a polyclonal population. Untargeted control cells are generated by transducing HT-1080 cells with the MLV vector LHSNO, which is identical to LHSN63Δ53O except that it contains a functional neo gene.
(§3) To determine the effect of emetine on gene editing, experiments were performed using human HT-1080 cells with LHSN63Δ530 provirus and HPRT exon 3Δ4, infected with AAV2-HSN5′ or AAV2-HPe3. Replicate samples of cells were treated under the following conditions: • AAV (MOI 2×10^4) alone for 24 hours; • 0.125 μM emetine for 8 hours followed by the addition of AAV (MOI 2×10^4) and incubation for 24 hours; • 0.25 μM emetine for 24 hours followed by the addition of AAV (MOI 2×10^4) and incubation for 24 hours; • 0.25 μM emetine for 24 hours followed by the addition of AAV (MOI 2×10^4) and incubation with AAV for 24 hours; • 0.25 μM emetine in the presence of AAV (MOI 2×10^4) for 24 hours; • AAV (MOI-2×10^4) for 8 hours followed by the addition of 0.25 μM emetine and incubation with emetine for 23 hours; • AAV (MOI-2×10^4) for 24 hours followed by the addition of 0.25 μM emetine and incubation with emetine for 8 hours; • AAV (MOI-2×10^4) for 8 hours followed by the addition of emetine (0.25 μM) and incubation with emetine for 18 hours, removal of emetine, followed by addition of a second dosage of emetine (0.25 μM) and incubation for 16 hours; or • AAV (MOI 2×10^4) for 24 hours followed by the addition of emetine (0.25 μM) and incubation for 7 hours, removal of emetine, followed by addition of a second dosage of emetine (0.25 μM) for 2 hours.
(§4) For each experiment, 2×10^4 cells were seeded and cultured in the presence of 4×10^8 AAV. All experiments were performed in DMEM+10% FBS+pen/strep. Emetine dihydrochloride hydrate: E2375 (Sigma) was prepared in water and sterilized by filtration on 0.22 uM filter.

[2] = tested on: mouse Hepa1-6 hepatoma cells; experiment: Gene editing (albumin knock-in, GFP expression by flow cytometry) with AAVDJ-mAlb-GFP; type: cell-based; settings: 1000 nM emetine
Description: To determine the effect of emetine on gene editing, experiments were performed using mouse Hepa1-6 hepatoma cells using the vector AAVDJ-mAlb-GFP. Gene editing in the presence of this vector results in an albumin knock-in with resulting expression of green fluorescent protein (GFP).
On day 0, 100,000 cells were plated in 1.5 ml DMEM with 10% FBS, 100 units/mL penicillin and 100 μg/mL streptomycin. On day 1, cells were transduced with AAVDJ-mAlb-GFP (multiplicity of (MOI)—50,000) by removing the media and adding to the cells 1.5 ml of fresh media (DMEM with 10% FBS, 100 units/mL penicillin, 100 μg/mL streptomycin) containing the desired MOI of the AAVDJ-mAlb-GFP virus. For 100,000 cells, to achieve an MOI of […] were added.
On day 2, fresh medium (1.5 ml of DMEM with 10% FBS, 100 units/mL penicillin, 100 μg/mL streptomycin) with or without emetine, was added. Replicate samples were treated with no emetine, or with 30 nM emetine, 100 nM emetine or 1000 nM emetine. A control sample lacked AAV. On day 3, the media was removed and 1.5 ml of DMEM with 10% FBS, 100 units/mL penicillin, 100 μg/mL streptomycin was added to the cells. Expression of GFP was measured on days 6, 7 and 10.
Flow cytometry was used to measure GFP expression. On the day of the assay (days 6, 7 and 10) cells were trypsinized and the resulting cell pellet was resuspended in 500 μL of FACS buffer (DPBS (Dulbecco's Phosphate Buffered Saline) without Ca2+, Mg2+, and supplemented with 2% FBS, 1 mM EDTA). The resulting cell suspension was analyzed for GFP positive cells on the BD FACScanto II. For samples treated with no AAV, 0 nM emetine, 30 nM emetine, and 100 nM emetine, 100,000 cells were analyzed, and for samples treated with 1000 nM emetine, 70,000 cells were analyzed.

[3] = tested on: HT-1080 cells with LHSN63D530 provirus and HPRT exon3D4; experiment: neo gene editing in HT-1080 cells infected with AAV2-HSN5′ (G418 selection), effect of emetine; type: cell-based, human
Excerpt: as §1, §2, §3, §4

[4] = 0.125 μM emetine for 8 hrs before adding AAV
[5] = 0.25 μM emetine for 24 hrs before adding AAV
[6] = 0.25 μM emetine for 24 hrs before adding AAV + 24 hrs with AAV
[7] = 0.25 μM emetine for 24 hrs with AAV
[8] = AAV for 8 hrs, then added 0.25 μM emetine for 23 hrs
[9] = AAV for 8 hrs, then added emetine for 18 hrs, then removed emetine for 8 hrs, then added emetine for 16 hrs
[10] = AAV for 24 hrs then with 0.25 μM emetine for 8 hrs
[11] = AAV for 24 hrs, then emetine for 7 hrs, then removed emetine for 16 hrs, then added emetine for 2 hrs

With `CC[C@H]1CN2CCc3cc(OC)c(OC)cc3[C@@H]2C[C@@H]1C[C@H]1NCCc2cc(OC)c(OC)cc21` [emetine] the “increase in level of gene editing in vivo in mouse liver (peak bioluminescence) as compared to mice treated with AAV alone” value (shortened to “increase in level of gene editing”) (mouse liver; day 8) was 2.3 fold, the “increase in level of gene editing” value (mouse liver; day 15) was 1.6 fold and the “increase in level of gene editing” value (mouse liver; day 22) was 1.4 fold. The “Fold increase in editing frequency due to emetine, % HATR/% HAR no emetine” value (“Fold increase … % HATR/% HAR no emetine” for short) [1, 4] was 8.39 Fold, the “Fold increase … % HATR/% HAR no emetine” value [1, 5] was 7.25 Fold and the “Fold increase … % HATR/% HAR no emetine” value [1, 6] was 11.19 Fold. For the same compound, the “Fold increase … % HATR/% HAR no emetine” value [1, 7] was 8.39 Fold, the “Fold increase … % HATR/% HAR no emetine” value [1, 8] was 1.99 Fold and the “Fold increase … % HATR/% HAR no emetine” value [1, 9] was 2.88 Fold. The “Fold increase … % HATR/% HAR no emetine” value [1, 10] was 1.63 Fold, the “Fold increase … % HATR/% HAR no emetine” value [1, 11] was 1.56 Fold and the “increase in expression of GFP” value ([2]; day 6, FIG. 2) was 22 fold. For the same compound, the “increase in expression of GFP” value ([2]; day 7, FIG. 2) was 12 fold, the “increase in expression of GFP” value ([2]; day 10, FIG. 2) was 3 fold and the “Fold increase in editing frequency due to emetine, % G4158R emetine/% G418R no emetine” value [3, 4] was 2.40 Fold. The “Fold increase in editing frequency due to emetine, % G4158R emetine/% G418R no emetine” value [3, 5] was 3.82 Fold, the “Fold increase in editing frequency due to emetine, % G4158R emetine/% G418R no emetine” value [3, 6] was 6.64 Fold and the “Fold increase in editing frequency due to emetine, % G4158R emetine/% G418R no emetine” value [3, 7] was 3.70 Fold. The “Fold increase in editing frequency due to emetine, % G4158R emetine/% G418R no emetine” value [3, 8] was 1.96 Fold, the “Fold increase in editing frequency due to emetine, % G4158R emetine/% G418R no emetine” value [3, 9] was 8.47 Fold and the “Fold increase in editing frequency due to emetine, % G4158R emetine/% G418R no emetine” value [3, 10] was 1.94 Fold. The “Fold increase in editing frequency due to emetine, % G4158R emetine/% G418R no emetine” value [3, 11] was 2.63 Fold.
